# Laboratory results as given in patent US20150147350A1, “Method Of Treating Cancer With MEGEA3 Immunotherapeutic With BRAF Inhibitor And/Or MEK Inhibitor” (GlaxoSmithKline LLC, priority 2011, published 2015).
# Tested on: systemic immunity
# Experiment: Peripheral blood immune-monitoring in cancer patients treated with BRAF inhibitor
# Experimental: 13 patients with tumors carrying a BRAF mutation who underwent treatment with GSK2118436 (the compound of formula (I)), a V600 mutant BRAF specific inhibitor were studied to assess effects of mutant BRAF inhibition on systemic immunity. Peripheral blood immune-monitoring was carried out before and following one or two 28-day cycles of treatment.
compound,measurement,setting,value
"CC(C)(C)c1nc(-c2cccc(NS(=O)(=O)c3c(F)cccc3F)c2F)c(-c2ccnc(N)n2)s1 [GSK2118436, N-{3-[5-(2-Amino-4-pyrimidinyl)-2-(1,1-dimethylethyl)-1,3-thiazol-4-yl]-2-fluorophenyl}-2,6-difluorobenzenesulfonamide]","impact on most immune parameters tested (serum cytokine levels, peripheral blood cell counts, leukocyte subset frequencies, memory CD4+ and CD8+ T-cell recall responses)","13 patients, before and following one or two 28-day cycles of treatment",no detectable impact
same,serum TNF-α over the course of treatment,"13 patients, one or two 28-day cycles of treatment",slight increase
same,negative impact on existing systemic immunity or the de novo generation of tumor-specific T cells,"patients, conclusion of the study",no detectable negative impact
same,circulating tumor antigen-specific CD8+ T cells,"three of the four human leukocyte antigen-A2-positive patients, following BRAF(V600) inhibitor therapy",modest increase
